Measured values as given in ChEMBL document CHEMBL4808236, “New phorbol ester derivatives as potent anti-HIV agents” (Bioorg Med Chem Lett, 2021).

Columns and labels:
[1] = test system: Human immunodeficiency virus 1; assay: Antiviral activity against HIV-1 NL4-3 infected in human MT4 cells assessed as reduction in p24 production treated at 48 hrs post-infection and measured on day 4 post-viral infection by ELISA; format: functional, organism-based; details: Human immunodeficiency virus 1, NL4-3, MT4
MT4 = assay: Cytotoxicity against human MT4 cells assessed as reduction in cell viability by CellTiter-Glo luminescence assay; format: cell-based
MCF7 = assay: Antiproliferative activity against human MCF7 cells assessed as reduction in cell viability measured after 72 hrs by SRB assay; format: functional, cell-based; details: MCF7, 72 h
KB = assay: Antiproliferative activity against human KB cells assessed as reduction in cell viability measured after 72 hrs by SRB assay; format: functional, cell-based
A549 = assay: Antiproliferative activity against human A549 cells assessed as reduction in cell viability measured after 72 hrs by SRB assay; details: A549, 72 h
[2] = Antiproliferative activity against human KB-VIN cells assessed as reduction in cell viability after 72 hrs by SRB assay; format: functional, cell-based; details: KBVIN
MDA-MB-231 = assay: Antiproliferative activity against human MDA-MB-231 cells assessed as reduction in cell viability measured after 72 hrs by SRB assay; format: functional, cell-based; details: MDA-MB-231, 72 h
[3] = Selectivity index, ratio of CC75 for cytotoxicity against human MT4 cells to IC50 for antiviral activity against HIV-1 NL4-3 infected in human MT4 cells; format: toxicity, cell-based; details: read-out: Selectivity Index

SMILES	IC50 [1] [µM]	IC50 (MCF7) [µM]	IC50 (KB) [µM]	IC50 (A549) [µM]	IC50 (MDA-MB-231) [µM]	CC75 (MT4) [µM]	IC50 [2] [µM]	selectivity ratio [3]
C/C=C/C(=O)OCC1=C[C@H]2C3C(C)(C)[C@]3(OC(=O)/C=C/C)[C@H](O)[C@@H](C)[C@]2(O)[C@@H]2C=C(C)C(=O)[C@@]2(O)C1 (single isomer, unassigned)	> 10	> 10	> 10	6.22	6.7	> 5	> 10	–
CCCC(=O)O[C@]12C([C@@H]3C=C(CO)C[C@]4(O)C(=O)C(C)=C[C@H]4[C@@]3(O)[C@H](C)[C@H]1OC(=O)/C=C/c1ccc(O)c(OC)c1)C2(C)C (single isomer, unassigned)	0.0872	> 10	> 10	> 10	> 10	> 5	> 10	> 50
CC(=O)OCC1=C[C@H]2[C@@H]3C(C)(C)[C@]3(OC(C)=O)[C@H](OC(C)=O)[C@@H](C)[C@]2(O)[C@@H]2C=C(C)C(=O)[C@@]2(O)C1	> 10	> 10	> 10	> 10	> 10	> 5	> 10	–
CC1=C[C@H]2[C@@]3(O)[C@H](C)[C@@H](O)[C@]4(OC(=O)/C=C/c5ccccc5)C([C@@H]3C=C(CO)C[C@]2(O)C1=O)C4(C)C (single isomer, unassigned)	> 10	> 10	> 10	> 10	> 10	> 5	> 10	–
CCCC(=O)OCC1=C[C@H]2[C@@H]3C(C)(C)[C@]3(OC(=O)CCC)[C@H](OC(=O)/C=C/c3ccc(OC(C)=O)c(OC)c3)[C@@H](C)[C@]2(O)[C@@H]2C=C(C)C(=O)[C@@]2(O)C1	> 10	9.32	8.54	3.71	6.06	–	12.6	–
CC/C=C/C/C=C/C/C=C/C/C=C/C/C=C/CCCC(=O)O[C@@H]1[C@@H](C)[C@@]2(O)[C@@H](C=C(CO)C[C@]3(O)C(=O)C(C)=C[C@@H]23)[C@@H]2C(C)(C)[C@]12OC(=O)CCC/C=C/C/C=C/C/C=C/C/C=C/C/C=C/CC	0.11	> 10	> 10	> 10	> 10	> 5	> 10	–
CC/C=C/C/C=C/C/C=C/C/C=C/C/C=C/CCCC(=O)OCC1=C[C@H]2[C@@H]3C(C)(C)[C@]3(OC(=O)CCC/C=C/C/C=C/C/C=C/C/C=C/C/C=C/CC)[C@H](O)[C@@H](C)[C@]2(O)[C@@H]2C=C(C)C(=O)[C@@]2(O)C1	2.23	> 10	> 10	> 10	> 10	> 5	> 10	–
C/C=C/C(=O)O[C@@H]1[C@@H](C)[C@@]2(O)[C@@H](C=C(CO)C[C@]3(O)C(=O)C(C)=C[C@@H]23)[C@@H]2C(C)(C)[C@]12OC(=O)/C=C/C	0.408	> 10	> 10	> 10	> 10	> 10	> 10	–
Cc1cn([C@H]2C[C@H](N=[N+]=[N-])[C@@H](CO)O2)c(=O)[nH]c1=O [ZIDOVUDINE]	0.0169	–	–	–	–	> 0.37	–	–
CCCCCCCCCCCCCCCCCCCC(=O)O[C@]12C([C@@H]3C=C(CO)C[C@]4(O)C(=O)C(C)=C[C@H]4[C@@]3(O)[C@H](C)[C@H]1O)C2(C)C (single isomer, unassigned)	0.0135	> 10	> 40	0.08	0.21	> 5	> 40	> 350
C/C=C/C(=O)O[C@]12C([C@@H]3C=C(CO)C[C@]4(O)C(=O)C(C)=C[C@H]4[C@@]3(O)[C@H](C)[C@H]1O)C2(C)C (single isomer, unassigned)	> 10	> 10	> 10	> 10	> 10	> 5	> 10	–
CCCC(=O)OCC1=C[C@H]2[C@@H]3C(C)(C)[C@]3(OC(=O)CCC)[C@H](O)[C@@H](C)[C@]2(O)[C@@H]2C=C(C)C(=O)[C@@]2(O)C1	–	–	–	–	–	> 5	–	–
CC(=O)O[C@@H]1[C@@H](C)[C@@]2(O)[C@@H](C=C(CO)C[C@]3(O)C(=O)C(C)=C[C@@H]23)[C@@H]2C(C)(C)[C@]12OC(C)=O	1.36	> 10	> 10	7.49	8.91	> 10	> 10	–
CC(=O)OCC1=C[C@H]2[C@@H]3C(C)(C)[C@]3(OC(C)=O)[C@H](O)[C@@H](C)[C@]2(O)[C@@H]2C=C(C)C(=O)[C@@]2(O)C1	–	–	–	–	–	> 5	–	–

The next lines start with results.

IC50 [1] [µM]	IC50 (MCF7) [µM]	IC50 (KB) [µM]	IC50 (A549) [µM]	IC50 (MDA-MB-231) [µM]	SMILES	CC75 (MT4) [µM]	IC50 [2] [µM]	selectivity ratio [3]
0.0733	> 10	> 10	3.27	6.3	CCCC(=O)OCC1=C[C@H]2C3C(C)(C)[C@]3(OC(=O)CCC)[C@H](OC(=O)/C=C/c3ccccc3)[C@@H](C)[C@]2(O)[C@@H]2C=C(C)C(=O)[C@@]2(O)C1 (single isomer, unassigned)	> 5	> 10	–
> 10	> 10	> 40	> 10	10.1	CC/C=C/C/C=C/C/C=C/C/C=C/C/C=C/CCCC(=O)OCC1=C[C@H]2[C@@H]3C(C)(C)[C@]3(OC(=O)CCC/C=C/C/C=C/C/C=C/C/C=C/C/C=C/CC)[C@H](OC(=O)CCC/C=C/C/C=C/C/C=C/C/C=C/C/C=C/CC)[C@@H](C)[C@]2(O)[C@@H]2C=C(C)C(=O)[C@@]2(O)C1	> 5	> 40	–
> 10	> 10	> 10	> 10	> 10	COc1cc(/C=C/C(=O)O[C@]23C([C@@H]4C=C(CO)C[C@]5(O)C(=O)C(C)=C[C@H]5[C@@]4(O)[C@H](C)[C@H]2O)C3(C)C)ccc1C(C)=O (single isomer, unassigned)	> 5	> 10	–
5.46	> 10	> 10	> 10	> 10	CC1=C[C@H]2[C@@]3(O)[C@H](C)[C@@H](O)[C@]4(OC(=O)CCc5ccccc5)C([C@@H]3C=C(CO)C[C@]2(O)C1=O)C4(C)C (single isomer, unassigned)	> 10	> 10	–
0.0031	> 10	> 10	> 10	> 10	CC(=O)O[C@@]12[C@H](OC(=O)/C=C/c3ccccc3)[C@@H](C)[C@@]3(O)[C@@H](C=C(CO)C[C@]4(O)C(=O)C(C)=C[C@@H]34)[C@@H]1C2(C)C	> 5	> 10	> 1500
–	0.015	0.008	–	0.008	CC(=O)O[C@H]1C(=O)[C@@]2(C)[C@H]([C@H](OC(=O)c3ccccc3)[C@]3(O)C[C@H](OC(=O)[C@H](O)[C@@H](NC(=O)c4ccccc4)c4ccccc4)C(C)=C1C3(C)C)[C@]1(OC(C)=O)CO[C@@H]1C[C@@H]2O [PACLITAXEL]	–	2.54	–
0.00046	> 10	> 10	> 10	> 10	CC/C=C/C/C=C/C/C=C/C/C=C/C/C=C/CCCC(=O)O[C@@H]1[C@@H](C)[C@@]2(O)[C@@H](C=C(CO)C[C@]3(O)C(=O)C(C)=C[C@@H]23)[C@@H]2C(C)(C)[C@]12OC(C)=O	> 5	> 10	> 10000
> 10	> 10	> 10	> 10	> 10	C/C=C(/C)C(=O)O[C@]12C([C@@H]3C=C(CO)C[C@]4(O)C(=O)C(C)=C[C@H]4[C@@]3(O)[C@H](C)[C@H]1O)C2(C)C (single isomer, unassigned)	> 5	> 10	–
> 10	> 10	> 10	> 10	> 10	CC1=C[C@H]2[C@@]3(O)[C@H](C)[C@@H](OC(=O)/C=C/c4ccccc4)[C@]4(OC(=O)/C=C/c5ccccc5)[C@H]([C@@H]3C=C(COC(=O)/C=C/c3ccccc3)C[C@]2(O)C1=O)C4(C)C	> 5	> 10	–
> 10	> 10	> 10	> 10	> 10	CCCCCCCCCCCCCCCCCCCC(=O)O[C@@H]1[C@@H](C)[C@@]2(O)[C@@H](C=C(CO)C[C@]3(O)C(=O)C(C)=C[C@@H]23)[C@@H]2C(C)(C)[C@]12OC(=O)CCCCCCCCCCCCCCCCCCC	> 5	> 10	–
0.362	> 10	> 10	> 10	> 10	COc1cc(/C=C/C(=O)O[C@@H]2[C@@H](C)[C@@]3(O)[C@@H](C=C(CO)C[C@]4(O)C(=O)C(C)=C[C@@H]34)[C@@H]3C(C)(C)[C@]23OC(C)=O)ccc1O	> 5	> 10	–
